Strand notation (5' to 3'): a small letter for the sugar, then the base; units joined by * are phosphorothioate-linked, units joined directly phosphodiester-linked; [ ] holds rarer units or linkages, { } end groups; capitals alone tell only the bases. l = locked nucleic acid (LNA); [5mC] = 5-methylcytosine; d = 2'-deoxy (DNA)
Columns and labels:
miR-122a [1] = assay: miR-122a levels in mouse liver by microRNA specific qPCR; type: in vivo; conditions: 25 mg/kg i.v. on 3 successive days; 24 hour after last dose
Description: Total RNA was extracted from liver samples as described above and analysed for miR-122a levels by microRNA specific QPCR.
In vivo study: Ten groups of animals (female C57/BL6; 3 mice per group) were treated in the following manner. Group 1 animals were injected with 0.2 ml saline by i.p. on day 0, day 2 and day 4. Groups 2-10 were dosed by i.p. with three different conc. (25 mg/kg, 5 mg/kg and 1 mg/kg) of either LNA antimiR-122a/SEQ ID NO: 61 (group 2-4), LNA antimir-122a/SEQ ID NO: 66 (group 5-7) or LNA antimir-122a/SEQ ID NO: 63 (group 8-10); the LNA antimir-122a sequences are given in the Table 1. All three LNA antimiR-122a oligonucleotides target the liver-specific miR-122a. The doses were calculated from the Day 0 body weights of each animal.
The animals were sacrificed 48 hours after last dose (Day 6), retro-orbital blood was collected in tubes containing EDTA and the plasma fraction harvested and stored frozen −80° C. for cholesterol analysis. At sacrifice livers were dissected and one portion was cut into 5 mm cubes and immersed in 5 volumes of ice-cold RNAlater. A second portion was snap frozen in liquid nitrogen and stored for cryo-sectioning.
Total RNA was extracted from liver samples using Trizol reagent according to the manufacturer's recommendations (Invitrogen, USA) and analysed for miR-122a levels by microRNA-specific QPCR according to the manufacturer's recommendations (Ambion, USA). […]
NMRI female mice were treated with indicated doses of LNA-antimiR (SEQ ID NO: 61) along with a mismatch control (m, SEQ ID NO: 65), saline and antagomir (SPC3595) for three consecutive days and sacrificed 24 hours after last dose (as in example 11 “old design”, n=5). miR-122 levels were analyzed by qPCR and normalized to the saline treated group.
C57BL/6J female mice were fed on high fat diet for 13 weeks before the initiation of the SEQ ID NO: 63 treatment. […] Both hypercholesterolemic and normal mice were treated i.p. twice weekly with 5 mg/kg SEQ ID NO: 63 and the corresponding mismatch control for a study period of 5½ weeks. Blood samples were collected weekly and total plasma cholesterol was measured during the entire course of the study. Upon sacrificing the mice, liver and blood samples were prepared for total RNA extraction, miRNA and mRNA quantification, assessment of the serum transaminase levels, and liver histology.
The miR-122 and let-7a microRNA levels were quantified with TaqMan microRNA Assay (Applied Biosystems) following the manufacturer's instructions. The RT reaction was diluted ten times in water and subsequently used for real time PCR amplification according to the manufacturer's instructions. A two-fold cDNA dilution series from liver total RNA of a saline-treated animal or mock transfected cells cDNA reaction (using 2.5 times more total RNA than in samples) served as standard to ensure a linear range (Ct versus relative copy number) of the amplification. Applied Biosystems 7500 or 7900 real-time PCR instrument was used for amplification.

miR-122a [2] = assay: Melting temperature (Tm) of LNA anti-miR/miR-122a RNA duplex; type: physicochemical, human; conditions: Table 2; towards synthetic miR-122a RNA oligonucleotide with phosphorothioate linkages; PS backbone
Description: The melting temperatures were assessed towards the mature miR-122a sequence, using a synthetic miR-122a RNA oligonucleotide with phosphorothioate linkaged.
The LNA anti-miR/miR-122a oligo duplex was diluted to 3 μM in 500 μl RNase free H2O, which was then mixed with 500 μl 2× dimerization buffer (final oligo/duplex conc. 1.5 μM, 2× Tm buffer: 200 mM NaCl, 0.2 mM EDTA, 20 mM NaP, pH 7.0, DEPC treated to remove RNases). The mix was first heated to 95 degrees for 3 minutes, then allowed to cool at room temperature (RT) for 30 minutes.
Following RT incubation Tm was measured on Lambda 40 UV/VIS Spectrophotometer with peltier temperature progammer PTP6 using PE Templab software (Perkin Elmer). The temperature was ramped up from 20° C. to 95° C. and then down again to 20° C., continuously recording absorption at 260 nm. First derivative and local maximums of both the melting and annealing was used to assess melting/annealing point (Tm), both should give similar/same Tm values. For the first derivative 91 points was used to calculate the slope.

ApoB-100 mRNA [3] = assay: Serum total cholesterol after dosing apoB antisense oligonucleotides; type: in vivo, mouse; conditions: for reduction of serum cholesterol: dosing 3*1 mg/kg
Description: Total cholesterol level is measured in plasma using a colometric assay Cholesterol CP from ABX Pentra. The cholesterol is measured following enzymatic hydrolysis and oxidation. 21.5 μL water was added to 1.5 μL plasma. 250 μL reagent is added and within 5 min the cholesterol content is measured at a wavelength of 540 nm. Measurements on each animal was made in duplicates. The sensitivity and linearity was tested with 2 fold diluted control compound (ABX Pentra N control). The relative Cholesterol level was determined by subtraction of the background and presented relative to the cholesterol levels in plasma of saline treated mice.
(§1) In this study 5 mg/kg/dose were dosed on 3 consecutive days (one dose/day i.v.) and animals were sacrificed 24 hours after last dosing. At sacrifice, liver and retro orbital sinus blood was sampled. Serum was prepared from blood for analysis of cholesterol. RNA was isolated from the liver and the expression of ApoB-100 mRNA was measured.
(§2) In this study three different concentrations (10, 15 and 25 mg/kg) of SEQ ID NO 17 (Table 1) and SEQ ID NO 34 (Table 1) were examined for duration of action on ApoB-100 mRNA expression and serum cholesterol level. SEQ ID NO 17 and SEQ ID NO 34 were given as a single dose of 10, 15 or 25 mg/kg to C57BL/6 female mice. Mice were sacrificed at different time points (1, 3, 5 and 8 days) after dosing; liver and serum were examined for ApoB-100 mRNA expression, liver oligonucleotide concentration and cholesterol and ALT, respectively.
Blood serum used to measure cholesterol was sampled at sacrifice. Twenty-four hours after dosing SEQ ID NO 17 serum total cholesterol was reduced 25-40%, and dosing SEQ ID NO 34 gave 40-55% reduction in total cholesterol. At day 3, the total cholesterol level was further reduced: SEQ ID NO 17 gave 70-90% reduction in a dose dependent manner after doing 10, 15 or 25 mg/kg. SEQ ID NO 34 reduced total cholesterol with 90-95% relative to the saline control group. At day 5-8 the total cholesterol level increased in all groups except the group dosed SEQ ID NO 17 at 10 mg/kg. (FIG. 4.).
Blood serum was sampled at sacrifice and used to measure cholesterol. The serum total cholesterol level reflected the mRNA expression of ApoB-100; dose dependent reduction with best effect at 5 days after dosing SEQ ID NO 17 at 1 and 2.5 mg/kg and similar effect at days 3, 5 and 8 after dosing 5 mg/kg (50% reduction). Dose dependent effect was also obtained after dosing SEQ ID NO 34 with best effect at day 3 after dosing 5 mg/kg (70% reduction) with following increase in cholesterol level (60% reduction at day 8 and 45% at day 16).
At sacrifice blood for serum was sampled and used to measure cholesterol.

ApoB-100 mRNA [4] = assay: ApoB-100 mRNA expression in liver by qPCR after dosing apoB antisense oligonucleotides; type: in vivo, mouse
Description: as §1, §2
(§3) Liver sampled at sacrifice was analysed for ApoB-100 mRNA expression by qPCR. Data was normalized to Gapdh and presented relative to the data obtained by dosing saline. One dose of 10, 15 or 25 mg/kg of SEQ ID NO 17 or SEQ ID NO 34 was very effective to down regulate ApoB-100 mRNA in liver (FIG. 3).
A single dose of SEQ ID NO 17 (Table 1) and SEQ ID NO 34 (Table 1) at different concentrations was administered to C57BL/6J mice to find ED50 values for cholesterol. Duration of action was also included in this study, because we previously have seen that maximum effect of a single dose not always was achieved 24 hours after dosing. […] In this study we therefore have chosen lower concentrations (1, 2.5 and 5 mg/kg).
Liver sampled at sacrifice was analysed for ApoB-100 mRNA expression by qPCR. Data was normalized to Gapdh and presented relative to the data obtained by dosing saline. One dose of 10, 15 or 25 mg/kg of SEQ ID NO 17 or SEQ ID NO 34 was very effective to down regulate ApoB-100 mRNA in liver (FIG. 5).
The effect on ApoB-100 mRNA was examined at different days after dosing 1.0 or 5.0 mg/kg (one dose day 0) of the three LNA antisense oligonucleotides 12-mer SEQ ID NO 34 (Table 1), SEQ ID NO 26 (Table 1) 13-mer and 14-mer SEQ ID NO 17 (Table 1) all targeting ApoB mRNA.
as §3, with “Dosing 3* 1” for “One dose of 10, 15”, “5” for “25”, “of SEQ ID NO 34,” for “of”, “26” for “34”, “7). […] SEQ ID NO 17 dosed 3* 1 mg/kg/dose or 5 mg/kg/dose down regulated target mRNA with 50% and 70% respectively.” for “3).”

Substance: 5′-ccAttGtcTcaAtcCa-3′ (antisense dC*dC*lA*dT*dT*lG*dT*dC*lT*dC*dA*lA*dT*dC*l[5mC]*dA) [SEQ ID NO: 65, reference compound]
- miR-122a inhibition in liver (in words) (miR-122a [1]): no miR-122a inhibition was detected
- Tm (° C.) (miR-122a [2]): 46 °C

Substance: 5′-Gs^MeCsaststsgsgstsastsTs^MeCsA-3′ (antisense lG*l[5mC]*dA*dT*dT*dG*dG*dT*dA*dT*lT*l[5mC]*lA) [SEQ ID NO: 26]
- reduction of serum cholesterol (ApoB-100 mRNA [3]): 60%
- down regulation of ApoB-100 mRNA (ApoB-100 mRNA [4]; liver, dosing 3*1 mg/kg i.v.): 60%
- down regulation of ApoB-100 mRNA (ApoB-100 mRNA [4]; liver, dosing 3*5 mg/kg i.v.): 90%

Substance: 5′-CCAttgtcacacTCCa-3′ (antisense l[5mC]*l[5mC]*lA*dT*dT*dG*dT*dC*dA*dC*dA*dC*lT*l[5mC]*l[5mC]*dA) [SEQ ID NO: 62]
- Tm (° C.) (miR-122a [2]): 69 °C

Substance: 5′-Gs^MeCsaststsgsgstsastsTs^MeC-3′ (antisense lG*l[5mC]*dA*dT*dT*dG*dG*dT*dA*dT*lT*l[5mC]) [SEQ ID NO: 34]
- effect on serum total cholesterol (in words) (ApoB-100 mRNA [3]; 3 doses of 5 mg/kg/dose i.v., day 3, oligos of different length compared): the best or the most potent effect
- reduction of serum cholesterol (ApoB-100 mRNA [3]): 60%
- reduction of serum total cholesterol (ApoB-100 mRNA [3]; single dose 5 mg/kg, day 3): 70%
- reduction of serum total cholesterol (ApoB-100 mRNA [3]; single dose 5 mg/kg, day 8): 60%
- reduction of serum total cholesterol (ApoB-100 mRNA [3]; single dose 5 mg/kg, day 16): 45%
- reduction of serum total cholesterol (ApoB-100 mRNA [3]; single dose of 10, 15 or 25 mg/kg, 24 hours after dosing): 40-55%
- reduction of serum total cholesterol (ApoB-100 mRNA [3]; single dose of 10, 15 or 25 mg/kg, day 3): 90-95%
- ApoB-100 mRNA down-regulation (in words) (ApoB-100 mRNA [4]; 10, 15 or 25 mg/kg SEQ ID NO 34, 25 mg/kg SEQ ID NO 17): completely down-regulated
- down regulation of ApoB-100 mRNA (ApoB-100 mRNA [4]; liver, 3 doses of 5 mg/kg/dose i.v. on consecutive days, 24 hours after last dosing): about 75%
- down regulation of ApoB-100 mRNA (ApoB-100 mRNA [4]; liver, dosing 3*1 mg/kg i.v.): 60%
- down regulation of ApoB-100 mRNA (ApoB-100 mRNA [4]; liver, dosing 3*5 mg/kg i.v.): 90%
- down regulation of ApoB-100 mRNA relative to saline (ApoB-100 mRNA [4]; liver, single dose of 10, 15 or 25 mg/kg, C57BL/6 female mice, 24 hours after dosing): 90-95%
- reduction of ApoB-100 mRNA expression (ApoB-100 mRNA [4]; single dose 2.5 mg/kg, day 8): 75%
- ApoB-100 mRNA down regulation (ApoB-100 mRNA [4]; single dose 5 mg/kg, day 16): 75%
- down regulation of ApoB-100 mRNA (ApoB-100 mRNA [4]; single dose 5 mg/kg, days 5-16): about 75%
